According to BindingDB's records for doi:10.1016/s0960-894x(98)00091-2 (Eli Lilly, 1999):

Molecular target: NMDA receptor (Rattus norvegicus)
Experiment: Binding affinity against Ionotropic glutamate receptor using [3H]- CGS-19755 displacement from rat forebrain preparations

IC50: 13.2 µM
SMILES: N[C@@H](C[C@H](CCC(c1ccccc1)c1ccccc1)C(=O)O)C(=O)O [(2S,4S)-2-Amino-4-(3,3-diphenyl-propyl)-pentanedioic acid]
